Results published in ChEMBL document CHEMBL1151845, “Terpenoids from Toona ciliata” (2009).
In brackets after ≈: the same amount, converted by molar mass.

How the values were obtained:
Trichophyton rubrum = assay: Antifungal activity against Trichophyton rubrum after 48 hrs; type: functional
[1] = system: Staphylococcus epidermidis; assay: Antibacterial activity against Staphylococcus epidermidis ATCC 12228 after 18 hrs; type: functional; details: ATCC 12228, 18 h

MIC (Trichophyton rubrum) | MIC [1] | SMILES
1.56 µg/mL (≈ 1.69 µM) |  | C[C@@H]1[C@H](O)[C@@H](C)/C=C/C=C/C=C/C=C/C=C/C=C/C=C/[C@H](O[C@@H]2O[C@H](C)[C@@H](O)[C@H](N)[C@@H]2O)C[C@@H]2O[C@](O)(C[C@@H](O)C[C@@H](O)[C@H](O)CC[C@@H](O)C[C@@H](O)CC(=O)O[C@H]1C)C[C@H](O)[C@H]2C(=O)O [AMPHOTERICIN B]
 | 0.39 µg/mL (≈ 1.08 µM) | CC1COc2c(N3CCN(C)CC3)c(F)cc3c(=O)c(C(=O)O)cn1c23 (stereo not drawn) [OFLOXACIN]
12.5 µg/mL (≈ 39 µM) |  | C=C[C@@]1(C)CC[C@H]2[C@@](O)(CC[C@@H]3[C@]2(C)CCC[C@]3(C)C(=O)O)C1 [TOONACILIATIN M]
